Reference: patent publication US9206183B2, “Substituted pyrazolo[1,5-a]pyridines as JAK inhibitors” (ALMIRALL, S.A., priority 2010, dated 2015)

Experiments:
Assay type in all cases: biochemical
[1] = target: T1, human JAK3 (aa 795-1124) (Homo sapiens, UniProt P52333); assay: In vitro JAK kinase assay (TR-FRET), JAK3; conditions: catalytic domain GST-fusion; ATP 0.6 μM; peptide 140 nM; 30 minutes at room temperature
T1 construct: JAK3 (aa 795-1124); GST (N); purchased Carna Biosciences; host or cells: baculovirus expression system
Procedure: (§1) Compounds were screened for their ability to inhibit JAK1, JAK2 and JAK3 using the assays as indicated below.
(§2) The catalytic domains of human JAK1 (aa 850-1154), JAK2 (aa 826-1132), JAK3 (aa 795-1124) and Tyk2 (aa 871-1187) were expressed as N-terminal GST-fusion proteins using a baculovirus expression system and were purchased from Carna Biosciences. The enzymatic activity was assayed using as substrate a biotinylated peptide, poly (GT)-Biotin (CisBio). The peptide concentration in the reactions was 60 nM for JAK1, 20 nM for JAK2, 140 nM for JAK3 and 50 nM for Tyk2. The degree of phosphorylation was detected by TR-FRET (time-resolved fluorescence energy transfer). IC50s of compounds were measured for each kinase in a reaction mixture containing the enzyme, ATP and the peptide in 8 mM MOPS (pH 7.0), 10 mM MgCl2, 0.05% β-mercaptoethanol, 0.45 mg/ml BSA. The ATP concentration in the reactions was 3 μM for JAK1, 0.2 μM for JAK2, 0.6 μM for JAK3 and 1.8 μM for Tyk2. The enzymatic reactions took place for 30 minutes at room temperature. Then, the reactions were stopped with 20 μL of quench detection buffer (50 mM HEPES, 0.5 M KF, EDTA 0.25 M, 0.1% (w/v) BSA, pH 7.5) containing 0.115 μg/mL of anti-phosphoTyr (PT66)-Cryptate (CisBio) and a variable concentration of SA-XL665 (CisBio) to keep the SA-B ratio constant. Incubate for 3 h and read on Victor 2V spectrofluorometer (PerkinElmer) set to read fluorescence resonance energy transfer.

[2] = target: T2, human JAK2 (aa 826-1132) (Homo sapiens, UniProt O60674); assay: In vitro JAK kinase assay (TR-FRET), JAK2; conditions: catalytic domain GST-fusion; ATP 0.2 μM; peptide 20 nM; 30 minutes at room temperature
T2 construct: JAK2 (aa 826-1132); GST (N); purchased Carna Biosciences; host or cells: baculovirus expression system
Procedure: as §1, §2

[3] = target: T3, human JAK1 (aa 850-1154) (Homo sapiens, UniProt P23458); assay: In vitro JAK kinase assay (TR-FRET), JAK1; conditions: catalytic domain GST-fusion; ATP 3 μM; peptide 60 nM; 30 minutes at room temperature
T3 construct: human JAK1 (aa 850-1154); GST (N); purchased Carna Biosciences; host or cells: baculovirus expression system
Procedure: as §1, §2

T1 sequence (P52333 795-1124): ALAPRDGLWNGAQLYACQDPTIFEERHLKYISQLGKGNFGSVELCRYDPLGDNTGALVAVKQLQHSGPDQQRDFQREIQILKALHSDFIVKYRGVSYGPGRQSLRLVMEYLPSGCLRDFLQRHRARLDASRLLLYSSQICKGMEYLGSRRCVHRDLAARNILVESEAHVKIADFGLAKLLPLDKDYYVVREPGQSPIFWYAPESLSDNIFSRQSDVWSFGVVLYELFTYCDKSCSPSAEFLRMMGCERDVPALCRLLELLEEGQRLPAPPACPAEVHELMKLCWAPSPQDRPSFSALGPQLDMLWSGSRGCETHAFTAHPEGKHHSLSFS
T3 sequence (P23458 850-1154): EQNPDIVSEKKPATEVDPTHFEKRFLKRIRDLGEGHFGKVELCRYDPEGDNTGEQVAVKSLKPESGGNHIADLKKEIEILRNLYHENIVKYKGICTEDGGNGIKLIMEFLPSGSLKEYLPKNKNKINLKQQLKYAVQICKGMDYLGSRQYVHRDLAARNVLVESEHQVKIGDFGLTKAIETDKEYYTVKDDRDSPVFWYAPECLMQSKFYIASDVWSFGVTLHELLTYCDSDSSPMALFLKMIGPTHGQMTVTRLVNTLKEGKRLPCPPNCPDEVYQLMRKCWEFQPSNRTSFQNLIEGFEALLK
T2 sequence (O60674 826-1132): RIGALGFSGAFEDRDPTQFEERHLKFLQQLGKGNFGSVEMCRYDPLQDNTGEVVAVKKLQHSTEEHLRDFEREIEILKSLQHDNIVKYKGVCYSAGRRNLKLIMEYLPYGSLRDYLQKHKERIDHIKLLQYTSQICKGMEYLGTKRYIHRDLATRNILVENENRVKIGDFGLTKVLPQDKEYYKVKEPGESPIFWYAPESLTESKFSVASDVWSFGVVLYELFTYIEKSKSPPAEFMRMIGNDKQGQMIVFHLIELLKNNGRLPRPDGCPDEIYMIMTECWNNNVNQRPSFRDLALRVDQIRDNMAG

Compound | IC50 [1] [nM] | IC50 [2] [nM] | IC50 [3] [nM]
COC[C@H](C)Nc1ccnc(-c2cnn3ccc(C#N)cc23)n1 [Example 5, 3-(4-{[(1S)-2-Methoxy-1-methylethyl]amino}pyrimidin-2-yl)pyrazolo[1,5-a]pyridine-5-carbonitrile] | < 100 | < 100 | 100 to 1000
C[C@H](Nc1ccnc(-c2cnn3ccncc23)n1)c1ccccc1 [Example 21, (S)—N-(1-phenylethyl)-2-(pyrazolo[1,5-a]pyrazin-3-yl)pyrimidin-4-amine] | < 100 | < 100 | < 100
CN(c1ccnc(-c2cnn3ccncc23)n1)[C@@H]1CCCN(C(=O)CC#N)C1 [Example 27, 3-{(3R)-3-[Methyl(2-pyrazolo[1,5-a]pyrazin-3-ylpyrimidin-4-yl)amino]piperidin-1-yl}-3-oxopropanenitrile] | < 100 | < 100 | 100 to 1000
O=C(CC(F)(F)F)N1CCC[C@@H](Nc2nc(-c3cnn4ccncc34)ncc2F)C1 [Example 30, 5-Fluoro-2-pyrazolo[1,5-a]pyrazin-3-yl-N-[(3R)-1-(3,3,3-trifluoropropanoyl)piperidin-3-yl]pyrimidin-4-amine] | < 100 | < 100 | 100 to 1000
C[C@H](Nc1nc(-c2cnn3ccncc23)ncc1Cl)c1ccc(F)cn1 [Example 37, (S)-5-Chloro-N-(1-(5-fluoropyridin-2-yl)ethyl)-2-(pyrazolo[1,5-a]pyrazin-3-yl)pyrimidin-4-amine] | < 100 | < 100 | < 100

More lines, now with the values ahead:

IC50 [1] [nM] | IC50 [2] [nM] | IC50 [3] [nM] | Compound
100 to 1000 | < 100 | > 1000 | N#Cc1ccn2ncc(-c3nccc(NCC(F)(F)F)n3)c2c1 [Example 7, 3-{4-[(2,2,2-Trifluoroethyl)amino]pyrimidin-2-yl}pyrazolo[1,5-a]pyridine-5-carbonitrile]
< 100 | < 100 | 100 to 1000 | N#CCC(=O)N1CCC[C@@H](Nc2ccnc(-c3cnn4ccc(C#N)cc34)n2)C1 [Example 14, 3-(4-{[(3R)-1-(Cyanoacetyl)piperidin-3-yl]amino}pyrimidin-2-yl)pyrazolo[1,5-a]pyridine-5-carbonitrile]
< 100 | < 100 | 100 to 1000 | N#Cc1ccn2ncc(-c3nccc(N[C@H]4CC[C@H](O)CC4)n3)c2c1 [Example 19, 3-(4-((Trans)-4-Hydroxycyclohexylamino)pyrimidin-2-yl)pyrazolo[1,5-a]pyridine-5-carbonitrile]
< 100 | < 100 | 100 to 1000 | N#Cc1ccc(N2CCC[C@@H](Nc3ccnc(-c4cnn5ccncc45)n3)C2)nc1 [Example 25, 6-{(3R)-3-[(2-Pyrazolo[1,5-a]pyrazin-3-ylpyrimidin-4-yl)amino]piperidin-1-yl}nicotinonitrile]
100 to 1000 | < 100 | 100 to 1000 | Nc1cnc(-c2cnn3ccncc23)nc1NC1CCOCC1 [Example 35, 2-(Pyrazolo[1,5-a]pyrazin-3-yl)-N^4-(tetrahydro-2H-pyran-4-yl)pyrimidine-4,5-diamine]
